Laboratory results published in ChEMBL document CHEMBL6074699, “Innovative Cancer Therapies: Targeting Oncogenic Pathways through Placental Immunology, PROTAC Technology, and Kinase Degradation” (ACS Med Chem Lett, 2024).

Columns and labels:
Assay type in all cases: cell-based
[1] = tested on: Calu-1; assay: PROTAC activity at DDB1/CDK4 in human Calu-1 cells assessed as induction of CDK4 degradation at 40 nM incubated for 16 hrs relative to control
[2] = tested on: Calu-1; assay: PROTAC activity at DDB1/CyclinD1 in human Calu-1 cells assessed as induction of cyclin D1 degradation at 40 nM incubated for 16 hrs relative to control
[3] = tested on: Calu-1; assay: PROTAC activity at DDB1/CDK4 in human Calu-1 cells assessed as induction of CDK4 degradation at 400 nM incubated for 16 hrs relative to control
[4] = tested on: Calu-1; assay: PROTAC activity at DDB1/CyclinD1 in human Calu-1 cells assessed as induction of cyclin D1 degradation at 400 nM incubated for 16 hrs relative to control

SMILES | Activity [1] [%] | Activity [2] [%] | Activity [3] [%] | Activity [4] [%]
CC(=O)c1c(C)c2cnc(Nc3ccc(N4CCN(CC(=O)NCCCCCNc5nc(C6CC6)ccc5C(=O)Nc5ccc(N(C)C)nn5)CC4)cn3)nc2n(C2CCCC2)c1=O | > 80 | > 80 | > 80 | > 80
CC(=O)c1c(C)c2cnc(Nc3ccc(N4CCN(CC(=O)NCCCCCCCNc5nc(C)ccc5C(=O)Nc5ccc(C)c(C6CC6)n5)CC4)cn3)nc2n(C2CCCC2)c1=O | < 80 | > 80 | > 80 | > 80
CNc1ccc(C(=O)Nc2ccc(N(C)C)nn2)c(NCCCCC(C)NC(=O)CN2CCN(c3ccc(Nc4ncc5c(C)c(C(C)=O)c(=O)n(C6CCCC6)c5n4)nc3)CC2)n1 (centres undefined) | > 80 | > 80 | > 80 | > 80
CC(=O)c1c(C)c2cnc(Nc3ccc(N4CCN(CC(=O)NCCCCCCCNc5nc(C)ccc5C(=O)Nc5ccc(N(C)C)nn5)CC4)cn3)nc2n(C2CCCC2)c1=O | < 80 | > 80 | > 80 | > 80
CNc1ccc(C(=O)Nc2ccc(N(C)C)nn2)c(NCCCCNC(=O)CCN2CCN(c3ccc(Nc4ncc5c(C)c(C(C)=O)c(=O)n(C6CCCC6)c5n4)nc3)CC2)n1 | < 80 | > 80 | < 80 | > 80
COc1ccc(NC(=O)c2ccc(C)nc2NCCCCCCCNC(=O)CN2CCN(c3ccc(Nc4ncc5c(C)c(C(C)=O)c(=O)n(C6CCCC6)c5n4)nc3)CC2)nn1 | < 80 | > 80 | > 80 | > 80
